Results reported in US20240254129A1, “HETEROCYCLIC COMPOUNDS AND USES THEREOF” (Kumquat Biosciences Inc., priority 2021, published 2024).
Like-named read-outs stand apart in the source and are kept apart here.

Legend:
[1] = target: GST-tagged K-Ras mutant / His-tagged hSOS1 (Homo sapiens, UniProt P01116); assay: HTRF assay, K-Ras mutant / SOS1 interaction; format: binding; conditions: read-out: IC50 against mutant Kras
Procedure, shortened: (§1)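 HTRF read-out (ex 337, em 620 and 665 nm) of Ras–SOS1 equilibrium binding: Eu-anti-GST on GST-K-Ras, XL665-anti-6His on His-hSOS1. Incubation about 10 min or longer; IC50 fitted from emission ratio, compounds in duplicate at 10 μM down to 0.01 μM.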

wildtype Kras / hSOS1 = target: T1, wildtype Kras / hSOS1 (Homo sapiens, UniProt P01116); assay: HTRF assay, wildtype Kras / SOS1 interaction; format: binding; conditions: read-out: IC50 against wildtype Kras
T1 construct: made in house; host or cells: E. coli BL21 (DE3)
Procedure, shortened: as §1

[2] = compound nos. 102-196, general methodology of example 5
[3] = compound nos. 201-213, general methodology of example 5

Sequence of GST-tagged K-Ras mutant / His-tagged hSOS1 (P01116 whole entry G12D, form open): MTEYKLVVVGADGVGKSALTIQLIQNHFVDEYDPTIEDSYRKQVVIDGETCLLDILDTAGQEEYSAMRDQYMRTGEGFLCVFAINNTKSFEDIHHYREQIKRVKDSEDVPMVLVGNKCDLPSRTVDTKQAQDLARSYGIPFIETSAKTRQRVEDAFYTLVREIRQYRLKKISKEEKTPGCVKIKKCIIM
T1 sequence (P01116 1-188 isoform P01116-2): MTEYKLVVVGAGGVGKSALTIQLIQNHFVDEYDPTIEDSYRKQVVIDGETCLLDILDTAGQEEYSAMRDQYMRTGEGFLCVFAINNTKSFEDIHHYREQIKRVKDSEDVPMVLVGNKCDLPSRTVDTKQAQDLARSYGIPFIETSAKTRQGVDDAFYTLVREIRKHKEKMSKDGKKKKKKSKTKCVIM

Row | SMILES | IC50 ([1]; compound nos. 401-703) | IC50 (wildtype Kras / hSOS1; compound nos. 401-703) | also measured
1 | Nc1nc2c(-c3c(Cl)cc4c(N5CCNC(=O)CC5)nc(OC[C@@]56CCCN5C[C@H](F)C6)nc4c3F)ccc(F)c2s1 [Compound 604, 1-(7-(2-amino-7-fluoroben-zo[d]thiazol-4-yl)-6-chloro-8-fluoro-2-(((2R,7aS)-2-fluorotetrahydro-1H-pyrrol-izin-7a(5H)-yl)methoxy)-quinazolin-4-yl)-1,4-diazepan-5-one] | < 500 nM | > 500 nM | 
2 | Cc1ccc2cnn(C)c2c1-c1c(Cl)cc2c(N3CC4CCC(C3)N4)nc(OCC3(CN4CCCC4)CC3)nc2c1F [Compound 438, 4-(3,8-diazabicyclo[3.2.1]-octan-3-yl)-6-chloro-7-(1,6-dimethyl-1H-indazol-7-yl)-8-fluoro-2-((1-(pyrrolidin-1-ylmethyl)cyclopropyl)meth-oxy)quinazoline] | > 500 nM | < 500 nM | 
3 | CN1CCC[C@H]1COc1nc(N2CCNCC(F)(F)C2)c2cc(Cl)c(-c3cccc4[nH]c(N)nc34)c(F)c2n1 [Compound 178, 4-(6-chloro-4-(6,6-difluoro-1,4-diazepan-1-yl)-8-fluoro-2-(((S)-1-methylpyrrolidin-2-yl)methoxy)quinazolin-7-yl)-1H-benzo[d]imidazol-2-amine] |  |  | IC50 [1, 2]: > 500 nM; IC50 (wildtype Kras / hSOS1; [2]): > 500 nM
4 | Nc1nc2c(-c3c(Cl)cc4c(N5CCN(S(=O)(=O)C6CC6)CC(F)(F)C5)nc(OC[C@@]56CCCN5C[C@H](F)C6)nc4c3F)ccc(F)c2s1 [Compound 576] | < 500 nM | > 500 nM | 
5 | CN(C)CC1(COc2nc(N3CCNCC(F)(F)C3)c3cc(Cl)c(-c4ccc(F)c5sc(N)nc45)c(F)c3n2)CC1 [Compound 489, 4-(6-chloro-4-(6,6-difluoro-1,4-diazepan-1-yl)-2-((1-((dimethylamino)methyl)-cyclopropyl)methoxy)-8-fluoroquinazolin-7-yl)-7-fluorobenzo[d]thiazol-2-amine] | < 500 nM | < 500 nM | 
6 | Nc1c(Cl)cccc1-c1c(Cl)cc2c(N3CC4CCC(C3)N4)nc(OCC34CCCN3CCC4)nc2c1F [Compound 589, 2-(4-(3,8-diazabicyclo-[3.2.1]octan-3-yl)-6-chloro-8-fluoro-2-((tetrahydro-1H-pyrrolizin-7a(5H)-yl)meth-oxy)quinazolin-7-yl)-6-chloroaniline] | > 500 nM | > 500 nM | 
7 | CN1CCC[C@H]1COc1nc(N2CCCC(NS(C)(=O)=O)CC2)c2cc(Cl)c(-c3cccc4sc(N)nc34)c(F)c2n1 (stereo partly drawn) [Compound 439, N-(1-(7-(2-aminobenzo[d]-thiazol-4-yl)-6-chloro-8-fluoro-2-(((S)-1-methyl-pyrrolidin-2-yl)methoxy)-quinazolin-4-yl)azepan-4-yl)methanesulfonamide] | < 500 nM | < 500 nM | 
8 | CN1CCC[C@H]1COc1nc(N2CCNC3COCC32)c2cc(Cl)c(-c3cccc4sc(N)nc34)c(F)c2n1 (stereo partly drawn) [Compound 107, 4-(6-chloro-8-fluoro-4-(hexahydrofuro[3,4-b]pyr-azin-1(2H)-yl)-2-(((S)-1-methylpyrrolidin-2-yl)meth-oxy)quinazolin-7-yl)benzo-[d]thiazol-2-amine] |  |  | IC50 [1, 2]: > 500 nM; IC50 (wildtype Kras / hSOS1; [2]): > 500 nM
9 | Nc1nc2c(-c3c(Cl)cc4c(N5CC6CNC(C6)C5)nc(OC[C@@]56CCCN5C[C@H](F)C6)nc4c3F)ccc(F)c2s1 (stereo partly drawn) [Compound 556, 4-(4-(3,6-diazabicyclo-[3.2.1]octan-3-yl)-6-chloro-8-fluoro-2-(((2R,7aS)-2-fluorotetrahydro-1H-pyrrol-izin-7a(5H)-yl)methoxy)-quinazolin-7-yl)-7-fluoro-benzo[d]thiazol-2-amine] | < 500 nM | > 500 nM | 
10 | Nc1nc2c(-c3c(Cl)cc4c(N5CCNCC(F)C5)nc(OCC56CCCN5CCC6)nc4c3F)ccc(F)c2s1 (centres unmarked) [Compound 163, 4-(6-chloro-8-fluoro-4-(6-fluoro-1,4-diazepan-1-yl)-2-((tetrahydro-1H-pyrrolizin-7a(5H)-yl)methoxy)quin-azolin-7-yl)-7-fluorobenzo-[d]thiazol-2-amine] |  |  | IC50 [1, 2]: < 500 nM; IC50 (wildtype Kras / hSOS1; [2]): < 500 nM
11 | CN1CCC[C@H]1COc1nc(N2C3CCNCC2CC3)c2cc(Cl)c(-c3cccc4sc(N)nc34)c(F)c2n1 (stereo partly drawn) [Compound 180, 4-(4-(3,9-diazabicyclo-[4.2.1]nonan-9-yl)-6-chloro-8-fluoro-2-(((S)-1-methyl-pyrrolidin-2-yl)methoxy)-quinazolin-7-yl)benzo[d]-thiazol-2-amine] |  |  | IC50 [1, 2]: < 500 nM; IC50 (wildtype Kras / hSOS1; [2]): > 500 nM
12 | N#Cc1c(N)sc2c(F)ccc(-c3c(Cl)cc4c(N5C[C@H]6CC[C@@H](C5)N6CC5COC5)nc(OC[C@@]56CCCN5C[C@H](F)C6)nc4c3F)c12 [Compound 643, 2-amino-4-(6-chloro-8-fluoro-2-(((2R,7aS)-2-fluorotetrahydro-1H-pyrrolizin-7a(5H)-yl)-methoxy)-4-((1R,5S)-8-(oxetan-3-yl-methyl)-3,8-diazabicyclo[3.2.1]-octan-3-yl)quinazolin-7-yl)-7-fluorobenzo[b]-thiophene-3-carbonitrile] | < 500 nM | > 500 nM | 
13 | N#CCCc1cc2c(N3CC4CCC(C3)N4)nc(OC[C@@]34CCCN3C[C@H](F)C4)nc2c(F)c1-c1ccc(F)c2sc(N)nc12 [Compound 496, 3-(7-(2-amino-7-fluoroben-zo[d]thiazol-4-yl)-4-(3,8-diazabicyclo[3.2.1]octan-3-yl)-8-fluoro-2-(((2R,7aS)-2-fluorotetrahydro-1H-pyrrol-izin-7a(5H)-yl)methoxy)-quinazolin-6-yl)propane-nitrile] | < 500 nM | < 500 nM | 
14 | Nc1c(F)ccc(-c2c(Cl)cc3c(N4CC5CCC(C4)N5)nc(OCC45CCCN4CCC5)nc3c2F)c1F [Compound 563, 3-(4-(3,8-diazabicyclo-[3.2.1]octan-3-yl)-6-chloro-8-fluoro-2-((tetrahydro-1H-pyrrolizin-7a(5H)-yl)meth-oxy)quinazolin-7-yl)-2,6-difluoroaniline] | > 500 nM | > 500 nM | 
15 | Nc1nc2c(-c3c(Cl)cc4c(N5CCNCC(F)(F)C5)nc(Oc5cccnc5C5CC5)nc4c3F)cccc2s1 [Compound 145, 4-(6-chloro-2-((2-cycloprop-ylpyridin-3-yl)oxy)-4-(6,6-difluoro-1,4-diazepan-1-yl)-8-fluoroquinazolin-7-yl)-benzo[d]thiazol-2-amine] |  |  | IC50 [1, 2]: > 500 nM; IC50 (wildtype Kras / hSOS1; [2]): > 500 nM
16 | CN1CCc2c(cccc2Oc2nc(N3CCNCC(F)(F)C3)c3cc(Cl)c(-c4cccc5sc(N)nc45)c(F)c3n2)C1 [Compound 153, 4-(6-chloro-4-(6,6-difluoro-1,4-diazepan-1-yl)-8-fluoro-2-((2-methyl-1,2,3,4-tetra-hydroisoquinolin-5-yl)oxy)-quinazolin-7-yl)benzo[d]-thiazol-2-amine] |  |  | IC50 [1, 2]: > 500 nM; IC50 (wildtype Kras / hSOS1; [2]): > 500 nM
17 | Nc1nc2c(-c3c(Cl)cc4c(N5C[C@H]6CC[C@@H](C5)N6)nc(OCC5(CN6CCCC6)CC5)nc4c3F)cccc2o1 [Compound 212, 4-(4-((1R,5S)-3,8-diaza-bicyclo[3.2.1]octan-3-yl)-6-chloro-8-fluoro-2-((1-(pyrrolidin-1-ylmethyl)-cyclopropyl)methoxy)quin-azolin-7-yl)benzo[d]oxazol-2-amine] |  |  | IC50 [1, 3]: < 1500 nM; IC50 (wildtype Kras / hSOS1; [3]): < 1500 nM
18 | N#Cc1c(N)sc2cc(F)cc(-c3c(Cl)cc4c(N5CC6CCC(C5)N6)nc(OC[C@@]56CCCN5C[C@H](F)C6)nc4c3F)c12 [Compound 476, 4-(4-(3,8-diazabicyclo-[3.2.1]octan-3-yl)-6-chloro-8-fluoro-2-(((2R,7aS)-2-fluorotetrahydro-1H-pyrrolizin-7a(5H)-yl)meth-oxy)quinazolin-7-yl)-2-amino-6-fluorobenzo[b]-thiophene-3-carbonitrile] | < 500 nM | < 500 nM | 
19 | NC(=O)C1COCCN(c2nc(OC[C@@]34CCCN3C[C@H](F)C4)nc3c(F)c(-c4ccc(F)c5sc(N)nc45)c(Cl)cc23)C1 (stereo partly drawn) [Compound 507, 4-(7-(2-amino-7-fluoroben-zo[d]thiazol-4-yl)-6-chloro-8-fluoro-2-(((2R,7aS)-2-fluorotetrahydro-1H-pyrrol-izin-7a(5H)-yl)methoxy)-quinazolin-4-yl)-1,4-oxazepane-6-carboxamide] | < 500 nM | > 500 nM | 
20 | CC(C)CCN1[C@@H]2CC[C@H]1CN(c1nc(OCC34CCCN3CCC4)nc3c(F)c(-c4ccc(F)c5sc(N)nc45)c(Cl)cc13)C2 [Compound 682, 4-(6-chloro-8-fluoro-4-((1R,5S)-8-isopentyl-3,8-diazabicyclo[3.2.1]octan-3-yl)-2-((tetrahydro-1H-pyr-rolizin-7a(5H)-yl)methoxy)-quinazolin-7-yl)-7-fluoro-benzo[d]thiazol-2-amine] | < 500 nM | > 500 nM | 
21 | N#Cc1ccc2ccccc2c1-c1ccc2c(N3CC4CCC(C3)N4)nc(OC[C@@]34CCCN3C[C@H](F)C4)nc2c1F [Compound 691, 1-(4-(3,8-diazabicyclo-[3.2.1]octan-3-yl)-8-fluoro-2-(((2R,7aS)-2-fluorotetra-hydro-1H-pyrrolizin-7a(5H)-yl)methoxy)quinazolin-7-yl)-2-naphthonitrile] | > 500 nM | > 500 nM | 
22 | CN1[C@@H]2CC[C@H]1CN(c1nc(OC[C@@]34CCCN3C[C@H](F)C4)nc3c(F)c(-c4ccc(F)c5sc(N)nc45)c(Cl)cc13)C2 [Compound 470, 4-(6-chloro-8-fluoro-2-(((2R,7aS)-2-fluorotetrahydro-1H-pyrrolizin-7a(5H)-yl)methoxy)-4-((1R,5S)-8-methyl-3,8-diazabicyclo[3.2.1]octan-3-yl)quinazolin-7-yl)-7-fluorobenzo[d]thiazol-2-amine] | < 500 nM | < 500 nM | 
